Test results reported in patent US20220397573A1, “Biomolecular Detection Device” (Hoffmann-La Roche Inc., priority 2019, published 2022).

Tested on: off-target adenosine receptors
Experiment: Cross-sensitivity test: stimulation of off-target receptors in HEK293 cells on the biomolecular detection device
Format: cell-based
Conditions: 5 μM NECA, FIG. 6a
Experimental: SNAP-β2AR cells were grown to 60-80% confluency in T25 culture flasks, washed twice with warm phosphate-buffered saline (PBS), incubated with 1× Versene for 5 min and resuspended in cell culture medium. In order to decrease baseline signal contributions from non-functional cellular debris, the cells were centrifuged at 50 rpm for 1 min and resuspended in culture media two times sequentially. The cells were seeded to reach confluency on the waveguide in an incubation chamber containing 500 μl cell culture media. Cells were only seeded when viability exceeded 90%, as determined by a Countess automated cell counter (Invitrogen). Except for the real-time establishment of the transmembrane nanopattern, seeded cells were kept in a CO2 incubator at 37° C. for 2 h to allow cells adherence to the sensor chip (and covalent interaction of the SNAP-tag on the β2AR with the SNAP-tag substrate on the chip). The incubation chamber containing the cells was then washed twice with warm HBSS buffer (supplemented with 20 mM HEPES, pH 7.4) adjusted for DMSO and transferred to a modified F3000 ZeptoReader (Zeptosens) which was kept at 35° C. […] For all assays, the signal was monitored for 7 min (baseline measurement) before careful substitution of the buffer with buffer containing the β2AR ligand and monitored for another 21 min thereafter. […]

CCNC(=O)[C@H]1O[C@@H](n2cnc3c(N)ncnc32)[C@H](O)[C@@H]1O [NECA]
signal (mass increase at the receptor relative to the initial mass) upon off-target stimulation: no significant signal change
